Reference: US4472386A, “5-Fluoro-(β-uridine or 2'-deoxy-β-uridine) derivatives, a process for producing the same and a carcinostatic agent containing the same” (Toyama Chemical Co., Ltd., priority 1978, dated 1984)
Where two headings read alike, the source gives them in different places.

Experiments:
[1] = Acute toxicity test (b), oral LD50 (Table 4); settings: mouse, in vivo
Experimental: (b) The test compound was suspended in 0.25% CMC solution and administered orally to SLC-ddY mice (5 weeks old, male, 6 mice per group). The number of dead mice was counted over the subsequent 3 weeks. LD50 value was calculated according to the method of Van der Waerden.

[2] = tested on: Ehrlich ascites carcinoma; experiment: Carcinostatic test, oral, ED values (Table 5); type: in vivo, ddY mice; settings: Mus musculus, 336 h
Experimental: Ehrlich ascites carcinoma was subcutaneously inoculated into the right inguinal region of ddY mice (5 weeks old, male, 8 mice per group) with 8×10^6 cells per mouse. Twenty four hours after the inoculation,5, 10, 20 or 40 mg/kg of a test drug suspended or dissolved in polyethylene glycol was administered orally to the test group successively once daily for 10 days, while the same quantity as above of 10% polyethylene glycol was administered orally to the control group. Fourteen days after the inoculation, the tumor was excised and weighed, from which the average tumor weight ratio between the test group and the control group (T/C) was calculated. ED value was determined by the least square method.

[3] = tested on: Ehrlich ascites carcinoma; experiment: Inhibition of Ehrlich solid tumor in mice, oral administration starting six days after inoculation (Table 2); type: in vivo, ddY mice; settings: for T/C (average tumor weight ratio between test group and control group): day 21
Experimental: (§1) 1. Experiment on the inhibition of Ehrlich solid tumor
Ehrlich ascites carcinoma was subcutaneously inoculated into the inguinal region of ddY mice (5 weeks old, male, 8 mice per group) with 3×10^6 cells per mouse. Six days after the inoculation, a test drug dissolved or suspended in 0.5% CMC solution was administered orally to the test group successively once daily for 10 days, while the same quantity as above of 0.5% CMC solution was orally administered to the control group. Twenty one days after the inoculation, the tumor was excised and weighed, from which the average tumor weight ratio between the test group and the control group (T/C) was determined.

[4] = tested on: Sarcoma-180 ascites tumor; experiment: Inhibition of Sarcoma-180 ascites tumor in mice, intravenous administration (Table 3); type: in vivo, ddY mice; settings: for T/C (average tumor weight ratio between test group and control group): Sarcoma-180, day 10
Experimental: 2. Experiment on the inhibition of Sarcoma-180 ascites tumor
Sarcoma-180 ascites tumor was subcutaneously inoculated into the right inguinal region of ddY mice (5 weeks old, male, 8 mice per group) with 3×10^6 cells per mouse. Twenty four hours after the inoculation,a test drug dissolved in 10% polyethylene glycol was administered intravenously to the test group successively once daily for 7 days, while the same quantity as above of 10% polyethylene glycol was intravenously administered to the control group. Ten days after the inoculation, the tumor was excised and weighed, from which the average tumor weight ratio between the test group and the control group (T/C) was determined.

[5] = tested on: Ehrlich ascites carcinoma; experiment: Inhibition of Ehrlich solid tumor in mice, intraperitoneal administration (Table 1); type: in vivo, ddY mice; set-up: response vs control in vivo: dose or concentration left out as unconfirmed; settings: for response vs control in vivo: day 14
Experimental: as §1
Ehrlich ascites carcinoma was subcutaneously inoculated into the right inguinal region of ddY mice (5 weeks old, male, 8 mice per group) with 3×10^6 cells per mouse.
24 Hours after the inoculation, a test drug suspended or dissolved in 5% HCO 60 (a product manufactured by Nikkol) was administered intraperitoneally successively once daily for 7 days. To the control group, the same quantity as above of 5% HCO 60 was intraperitoneally administered in the same manner. Fourteen days after the inoculation, the tumor was excised and weighed, from which the average tumor weight ratio between the test group and the control group (T/C) was determined.

SLC-ddY mice = settings: mouse, in vivo
From the text: (a) The test compound was suspended in 0.25% CMC solution and administered intraperitoneally to SLC-ddY mice (5 weeks old, male, 6 mice per group). The number of dead mice was counted over the subsequent three weeks.

[6] = oral, 3 weeks, Van der Waerden method
[7] = 5 mg/kg i.v. once daily for 7 days
[8] = oral once daily for 10 days, least square method, read-out: ED30
[9] = oral once daily for 10 days, least square method, read-out: ED40
[10] = 60 mg/kg orally once daily for 10 days
[11] = 60 mg/kg orally once daily for 10 days from day 6, Ehrlich
[12] = 10 mg/kg i.v. once daily for 7 days
[13] = 40 mg/kg i.p. once daily for 7 days
[14] = Mus musculus, ip, 336 h, Ehrlich, read-out: T/C (average tumor weight ratio between test group and control group)

With `O=c1[nH]cc(F)c(=O)[nH]1` [5-Fu, 5-fluorouracil, reference compound] the LD50 at 504 h [1, 6] was 259 mg/kg, the ED30 ([2]; po) was 15 mg/kg and the ED40 ([2]; po) was 25 mg/kg. For the same compound, the Body weight change ([3]; 30 mg/kg orally once daily for 10 days) was -3.8 g, the “T/C (average tumor weight ratio between test group and control group)” value ([3]; 30 mg/kg orally once daily for 10 days from day 6, Ehrlich) was 39.7% and the Body weight change [4, 7] was “+4.0 g”. For the same compound, the “No. of surviving mice/No. of total mice used” value [4, 7] was 8/8, the “T/C (average tumor weight ratio between test group and control group)” value [4, 7] was 59.7% and the Body weight change ([5]; 20 mg/kg i.p. once daily for 7 days) was “+4.1 g”. It also gave a response vs control in vivo at 20 mg/kg ([5]; Mus musculus, Ehrlich, ip, 336 h, read-out: T/C (average tumor weight ratio between test group and control group)) of 49.9%.
With `O=C(c1ccc(F)cc1)n1c(=O)c(F)cn([C@H]2C[C@H](O)[C@@H](CO)O2)c1=O` [compound 2] the LD50 at 504 h ([1]; po) was 2070 mg/kg, the “Number of dead mice” value (SLC-ddY mice) was “no dead mice” and the ED30 [2, 8] was 11 mg/kg. The ED40 [2, 9] was 20 mg/kg, the Body weight change [3, 10] was -0.4 g and the “T/C (average tumor weight ratio between test group and control group)” value [3, 11] was 36.8%. The Body weight change [4, 12] was “+4.1 g”, the “No. of surviving mice/No. of total mice used” value [4, 12] was 8/8 and the “T/C (average tumor weight ratio between test group and control group)” value [4, 12] was 46.2%. The Body weight change [5, 13] was “+6.8 g” and the response vs control in vivo [5, 14] was 23.2%.
In the case of `O=C(CCl)Nc1cccc(C(=O)n2c(=O)c(F)cn([C@H]3C[C@H](O)[C@@H](CO)O3)c2=O)c1` [compound 4], the Body weight change [5, 13] is reported as “+4.4 g” and the response vs control in vivo [5, 14] is reported as 25.2%.
In the case of `O=C(CCl)Nc1ccc(C(=O)n2c(=O)c(F)cn([C@H]3C[C@H](O)[C@@H](CO)O3)c2=O)cc1` [compound 5], the Body weight change [3, 10] is reported as -4.1 g, the “T/C (average tumor weight ratio between test group and control group)” value [3, 11] is reported as 34.0% and the Body weight change [5, 13] is reported as “+4.8 g”. It also gave a response vs control in vivo [5, 14] of 27.5%.
With `Cc1ccccc1C(=O)n1c(=O)c(F)cn([C@H]2C[C@H](O)[C@@H](CO)O2)c1=O` [compound 6] the Body weight change [5, 13] was “+7.3 g” and the response vs control in vivo [5, 14] was 32.3%.
For `O=C(c1ccccc1Cl)n1c(=O)c(F)cn([C@H]2C[C@H](O)[C@@H](CO)O2)c1=O` [compound 7], the Body weight change [5, 13] was “+6.0 g” and the response vs control in vivo [5, 14] was 33.1%.
For `O=C(c1ccccc1I)n1c(=O)c(F)cn([C@H]2C[C@H](O)[C@@H](CO)O2)c1=O` [compound 8], the Body weight change [5, 13] was “+7.6 g” and the response vs control in vivo [5, 14] was 33.5%.
For `O=C(c1cccc2ccccc12)n1c(=O)c(F)cn([C@H]2C[C@H](O)[C@@H](CO)O2)c1=O` [compound 9], the Body weight change [5, 13] was “+6.7 g” and the response vs control in vivo [5, 14] was 33.5%.
In the case of `COc1cc(N)c(Cl)cc1C(=O)n1c(=O)c(F)cn([C@H]2C[C@H](O)[C@@H](CO)O2)c1=O` [compound 10], the Body weight change [5, 13] is reported as “+7.3 g” and the response vs control in vivo [5, 14] is reported as 34.2%.
For `O=C(c1cccc(Cl)c1)n1c(=O)c(F)cn([C@H]2C[C@H](O)[C@@H](CO)O2)c1=O` [compound 11], the “Number of dead mice” value (SLC-ddY mice) was “no dead mice”, the Body weight change [5, 13] was “+7.6 g” and the response vs control in vivo [5, 14] was 34.3%.
In the case of `COC(=O)c1ccc(C(=O)n2c(=O)c(F)cn([C@H]3C[C@H](O)[C@@H](CO)O3)c2=O)cc1` [compound 12], the Body weight change [5, 13] is reported as “+6.2 g” and the response vs control in vivo [5, 14] is reported as 36.9%.
In the case of `N#Cc1ccc(C(=O)n2c(=O)c(F)cn([C@H]3C[C@H](O)[C@@H](CO)O3)c2=O)cc1` [compound 13], the “Number of dead mice” value (SLC-ddY mice) is reported as “no dead mice”, the Body weight change [5, 13] is reported as “+7.2 g” and the response vs control in vivo [5, 14] is reported as 36.9%.
For `O=Cc1ccc(C(=O)n2c(=O)c(F)cn([C@H]3C[C@H](O)[C@@H](CO)O3)c2=O)cc1` [compound 14], the Body weight change [5, 13] was “+7.1 g” and the response vs control in vivo [5, 14] was 38.1%.
In the case of `O=C(c1ccco1)n1c(=O)c(F)cn([C@H]2C[C@H](O)[C@@H](CO)O2)c1=O` [compound 15], the Body weight change [5, 13] is reported as “+7.9 g” and the response vs control in vivo [5, 14] is reported as 39.1%.
With `Cc1ccsc1C(=O)n1c(=O)c(F)cn([C@H]2C[C@H](O)[C@@H](CO)O2)c1=O` [compound 16] the Body weight change [5, 13] was “+6.4 g” and the response vs control in vivo [5, 14] was 40.7%.
In the case of `O=C(c1cc(O)cc(O)c1)n1c(=O)c(F)cn([C@H]2C[C@H](O)[C@@H](CO)O2)c1=O` [compound 17], the Body weight change [5, 13] is reported as “+7.9 g” and the response vs control in vivo [5, 14] is reported as 41%.
For `COc1cccc(OC)c1C(=O)n1c(=O)c(F)cn([C@H]2C[C@H](O)[C@@H](CO)O2)c1=O` [compound 18], the “Number of dead mice” value (SLC-ddY mice) was “no dead mice”, the Body weight change [5, 13] was “+7.8 g” and the response vs control in vivo [5, 14] was 41.5%.
With `O=C(c1ccc([N+](=O)[O-])cc1)n1c(=O)c(F)cn([C@H]2C[C@H](O)[C@@H](CO)O2)c1=O` [compound 19] the Body weight change [5, 13] was “+5.9 g” and the response vs control in vivo [5, 14] was 41.5%.
For `O=C(c1ccccc1F)n1c(=O)c(F)cn([C@H]2C[C@H](O)[C@@H](CO)O2)c1=O` [compound 20], the Body weight change [5, 13] was “+7.4 g” and the response vs control in vivo [5, 14] was 42.8%.
For `CN(C)c1ccc(C(=O)n2c(=O)c(F)cn([C@H]3C[C@H](O)[C@@H](CO)O3)c2=O)cc1` [compound 21], the LD50 at 504 h [1, 6] was at least 2540 mg/kg, the Body weight change [5, 13] was “+4.7 g” and the response vs control in vivo [5, 14] was 32.4%.
In the case of `O=C(Nc1ccc(C(=O)n2c(=O)c(F)cn([C@H]3C[C@H](O)[C@@H](CO)O3)c2=O)cc1)C(Cl)Cl` [compound 22], the Body weight change [5, 13] is reported as “+6.5 g” and the response vs control in vivo [5, 14] is reported as 41.6%.
In the case of `O=C(c1cc(Br)cs1)n1c(=O)c(F)cn([C@H]2C[C@H](O)[C@@H](CO)O2)c1=O` [compound 23], the Body weight change [5, 13] is reported as “+5.3 g” and the response vs control in vivo [5, 14] is reported as 38.8%.
In the case of `O=C(c1ccc(Br)o1)n1c(=O)c(F)cn([C@H]2C[C@H](O)[C@@H](CO)O2)c1=O` [compound 24], the Body weight change [5, 13] is reported as “+4.7 g” and the response vs control in vivo [5, 14] is reported as 42.5%.
For `O=C(c1cccc(C(F)(F)F)c1)n1c(=O)c(F)cn([C@H]2C[C@H](O)[C@@H](CO)O2)c1=O` [compound 25], the Body weight change [5, 13] was “+5.3 g” and the response vs control in vivo [5, 14] was 43%.
With `O=C(CBr)Nc1ccc(C(=O)n2c(=O)c(F)cn([C@H]3C[C@H](O)[C@@H](CO)O3)c2=O)cc1` [compound 26] the Body weight change [5, 13] was “+2.3 g” and the response vs control in vivo [5, 14] was 35.3%.
In the case of `O=C(c1ccc2c(c1)OCO2)n1c(=O)c(F)cn([C@H]2C[C@H](O)[C@@H](CO)O2)c1=O` [compound 27], the LD50 at 504 h ([1]; po) is reported as at least 2290 mg/kg, the “Number of dead mice” value (SLC-ddY mice) is reported as “no dead mice” and the ED30 [2, 8] is reported as 6.4 mg/kg. The ED40 [2, 9] was 12 mg/kg, the Body weight change [3, 10] was -0.5 g and the “T/C (average tumor weight ratio between test group and control group)” value [3, 11] was 30%. For the same compound, the Body weight change [4, 12] was “+4.0 g”, the “No. of surviving mice/No. of total mice used” value [4, 12] was 8/8 and the “T/C (average tumor weight ratio between test group and control group)” value [4, 12] was 45.3%. For the same compound, the Body weight change [5, 13] was “+6.4 g” and the response vs control in vivo [5, 14] was 27.1%.
For `O=C(c1ccc(F)cc1F)n1c(=O)c(F)cn([C@H]2C[C@H](O)[C@@H](CO)O2)c1=O` [compound 28], the Body weight change [5, 13] was “+5.9 g” and the response vs control in vivo [5, 14] was 21.7%.
In the case of `O=C(c1c(F)cccc1F)n1c(=O)c(F)cn([C@H]2C[C@H](O)[C@@H](CO)O2)c1=O` [compound 29], the Body weight change [5, 13] is reported as “+7.9 g” and the response vs control in vivo [5, 14] is reported as 41.3%.
In the case of `CC(=O)OC[C@H]1O[C@@H](n2cc(F)c(=O)n(C(=O)c3ccc4c(c3)OCO4)c2=O)C[C@@H]1OC(C)=O` [compound 30], the Body weight change [5, 13] is reported as “+6.1 g” and the response vs control in vivo [5, 14] is reported as 30.1%.
